From patent publication US8012985B2, “Compounds with antiparasitic activity and medicines containing same” (Centre National de la Recherche Scientifique (C.N.R.S.), priority 2002, dated 2011) come the findings set out here.

Counter-ions that a name gives are not always drawn. Like-named read-outs stand apart in the source and are kept apart here. Marks after values point to notes of the source that are not given here.

One series relates to P. falciparum. Put plainly: Antimalarial activity in vitro against P. falciparum (Desjardins test, [3H] hypoxanthine incorporation). It is filed as cell-based. The conditions noted are these: growth in vitro of P. falciparum. An excerpt: FIG. 1 represents the antimalarial activity of compound 6.0 as a function of the drug concentration, according to Desjardins' test, (Desjardins R. E. et al., Antimicrob. Agents Chemother. 1979, 16, 710-718).
(§1) A. Antimalarial Activity In Vitro Against P. Falciparum and In Vivo in Mice Infected with P. Vinckei
(§2) Tables 4 and 5 hereafter show the results of the IC50 values in μM and of ED50 (mg/kg) obtained with compounds of the invention.
(§3) The IC50 is the concentration which inhibits 50% of the growth in vitro of P. falciparum (the IC50 measurements were determined according to the method of Desjardins in which the incorporation of [^3H] hypoxanthine in the nucleic acids serves as a cell viability index) (FIG. 1), the ED50 is the effective dose for inhibiting 50% of the growth in vivo of P. vinckei according to a 4-day suppression test.

The test system of a further series is P. vinckei. Put plainly: Antimalarial activity in vivo in mice infected with P. vinckei, 4-day suppression test. The conditions noted are these: for ED50: Plasmodium vinckei, 96 h. The method, then:
as §1, §2, §3
TI corresponds to the therapeutic index, TI=LD50 (semi chronic)/ED50; ip: intraperitoneal administration; po: per os.

Another series deals with B. canis. As to the kind of experiment: Antibabesia activity in vitro against B. canis. The format is cell-based. The method, then: (§4) The products 6.0, 22.0, and 2.0 were also evaluated in vitro for their activities against Babesia divergens and B. canis.
A further series has as its system Babesia divergens. Put plainly: Antibabesia activity in vitro against Babesia divergens. The format is cell-based. The method, then:
as §4

On the set-up of series [1]: species or system mice. The conditions noted are these: mouse, in vivo. The method, then:
The results are given hereafter of the pharmacokinetic parameters after administration by intra-peritoneal or oral route in mice for compound 6.0.
For determination of the serum level, bio-tests were used ex vivo: briefly, the medicament is administered to the animal, then blood samples are repeatedly taken. The sera are decomplemented for 30 minutes at 56° C. The active metabolite content is then determined by incubation of different concentrations (dichotomous dilution) of each serum, in the presence of suspensions of erythrocytes infected with P. falciparum, according to the method of DESJARDINS with [^3H] hypoxanthine.
The results are expressed in IS50, which corresponds to the percentage of serum (containing an active metabolite) capable of inhibiting 50% of the growth of P. falciparum.
This value is then converted into serum concentration (usually expressed in ng/ml), by testing the active compound directly (without passing via the animal), on the same suspension infected with P. falciparum and by determining its IC50 value (in ng/ml) [serum count ═IC50] (in ng/ml)×100/SI50 (in %)].
The results are expressed in log (serum count of medicaments), as a function of time, which allows the evaluation of the half-time for the distribution to the serum compartment t1/2(d); the half-time for the elimination of the serum compartment (t1/2(e)); of C0, corresponding to the serum count extrapolated to the origin in the elimination phase; of AUC (which indicates the quantity of drug circulating in the bloodstream); and the relative bio-availability in the administration method by oral route, versus the method by intraperitoneal route [AUC (po)/AUC (ip)] which signifies the degree of absorption by oral route.

[2] abbreviates: ip, tested after 2 administrations of the compound per day for 4 days.
Where [3] appears, read: po, tested after 2 administrations of the compound per day for 4 days.

Consider “1,12-bis(N,N′-methoxyacetamidinyl)dodecane [Compound 20.2]”, for which the IC50 in the series with P. falciparum was 4.35 µM. In addition, the “ED50 (mg/Kg) P. vinckei” value with P. vinckei (ip, 4-day suppression test) is on record as “ip = 10 mg/Kg”; in the series on P. vinckei (po, 4-day suppression test), “po = 110 mg/Kg”.

In the series with P. falciparum, “1,12-bis[N,N′-(benzyloxycarbonyl)amidinyl]dodecane [Compound 1.5]” came in with an IC50 of 0.4 µM.

“1,12-bis[N,N′-(isobutyloxycarbonyl)amidinyl]dodecane [Compound 1.4]” came in with an IC50 in the series on P. falciparum of 0.5 µM.

In the series on P. falciparum, `CC1(C)CN=C(NCCCCCCCCCCCCNC2=NCCC2)NC1` [25.0, 2 TFA] gave an IC50 of 0.0019 µM.

Take `CCOC(=O)NC(=N)CCCCCCCCCCCCC(=N)NC(=O)OCC` [Compound 1.2, 1,12-bis[N,N′-(ethyloxycarbonyl)amidinyl]dodecane]: 0.3 µM corresponded to half-maximal inhibition in the series with P. falciparum (IC50). Also, the “ED50 (mg/Kg) P. vinckei” value in the series with P. vinckei (ip, 4-day suppression test) is on record as “ip 33 mg/Kg”.

For `NC(CCCCCCCCCCCCC(N)=NO)=NO` [Compound 1.15, 1,12-bis(N,N′-hydroxyamidinyl)dodecane], the IC50 in the series on P. falciparum is 3.5 µM. Besides, the “ED50 (mg/Kg) P. vinckei” value with P. vinckei (po, 4-day suppression test) is listed as “po = 120 mg/Kg”.

`CON=C(N)CCCCCCCCCCCCC(N)=NOC` [Compound 1.16, 1,12-bis(N,N′-methoxyamidinyl)dodecane]: the IC50 in the series with P. falciparum turned out to be 6.8 µM.

The molecule `CCOC(=O)ON=C(N)CCCCCCCCCCCCC(N)=NOC(=O)OCC` [Compound 1.17, 1,12-bis(N,N′-ethoxycarbonyloxyamidinyl)dodecane] had an IC50 in the series with P. falciparum of 1.2 µM.

In the series with P. falciparum, `COC(=O)ON=C(N)CCCCCCCCCCCCC(N)=NOC(=O)OC` [Compound 1.18, 1,12-bis(N,N′-methoxycarbonyloxyamidinyl)dodecane] came in with an IC50 of 1.1 µM.

Consider `NC(CCCCCCCCCCCCC(N)=NOC(=O)Oc1ccccc1)=NOC(=O)Oc1ccccc1` [Compound 1.19, 1,12-bis(N,N′-phenoxycarbonyloxyamidinyl)dodecane], for which the concentration for half-maximal inhibition (IC50) in the series on P. falciparum was found to be 3.6 µM.

Take `CC(=O)ON=C(N)CCCCCCCCCCCCC(N)=NOC(C)=O` [Compound 1.22, 1,12-bis(N,N′-acetoxyamidinyl)dodecane]: the IC50 in the series with P. falciparum was determined as 1.4 µM.

For the molecule `NC(CCCCCCCCCCCCC(N)=NOC(=O)c1ccccc1)=NOC(=O)c1ccccc1` [Compound 1.23, 1,12-bis(N,N′-benzoyloxyamidinyl)dodecane], in the series with P. falciparum, the IC50 worked out at 1.1 µM.

For `CCNC(=O)ON=C(N)CCCCCCCCCCCCC(N)=NOC(=O)NCC` [Compound 1.24, 1,12-bis(N,N′-ethylcarbamoyloxyamidinyl)dodecane], the half-maximal inhibitory concentration (IC50) in the series on P. falciparum amounted to 0.2 µM. The “ED50 (mg/Kg) P. vinckei” value in the series with P. vinckei (po, 4-day suppression test) is given as “po = 90 mg/Kg”.

`O=c1[nH]c(CCCCCCCCCCCCc2noc(=O)[nH]2)no1` [Compound 1.27, 1,12-bis[(1.2,4-oxadiazol-5(4H)-one)-3-yl]dodecane]: the IC50 in the series with P. falciparum turned out to be 9.2 µM.

`O=S1NC(CCCCCCCCCCCCC2=NOS(=O)N2)=NO1` (stereo not drawn) [Compound 1.28, 1,12-bis[(1.2,3,5-oxathiadiazol-2(3H)-oxide)-4-yl]dodecane] registered an IC50 with P. falciparum of 0.2 µM.

For `O=c1[nH]c(CCCCCCCCCCCCc2nsc(=O)[nH]2)ns1` [Compound 1.30, 1,12-bis[(1.2,4-thiadiazol-5(4H)-one)-3-yl]dodecane], the midpoint of inhibition in the series with P. falciparum, the IC50, lay at 0.02 µM. Further, the “ED50 (mg/Kg) P. vinckei” value in the series on P. vinckei (ip, 4-day suppression test) is “ip = 20 mg/Kg”.

Regarding `N=C(CCCCCCCCCCCCC(=N)N1CCCC1)N1CCCC1` [Compound 2.0, 2 HCl, 1,14-di(pyrrolidin-1-yl)tetradecane-1,14-diimine], the half-maximal inhibitory concentration (IC50) in the series on B. canis and with Babesia divergens was less than 0.05 µM each time.

Molecule `N=C(CCCCCCCCCCCCC(=N)N1CCCCC1)N1CCCCC1` [Compound 3.0, 1,14-di(piperidin-1-yl)tetradecane-1,14-diimine] had an IC50 in the series on P. falciparum (Plasmodium falciparum) of 0.0049 µM.

Turning to `C(CCCCCCC1=NCCN1)CCCCCC1=NCCN1` [Compound 6.0, 1,12-bis(imidazolin-2-yl)dodecane], the IC50 in the series on P. falciparum came to 0.002 µM. The “ED50 (mg/Kg) P. vinckei” value is listed as “ip = 34* mg/Kg” with P. vinckei (setting [2]) and “po = 62* mg/Kg” in the series on P. vinckei (setting [3]).

In turn, `O=C(OCc1ccccc1)N1CCN=C1CCCCCCCCCCCCC1=NCCN1C(=O)OCc1ccccc1` [Compound 6.5, 1,12-bis[N,N′-(benzyloxycarbonyl)imidazolin-2-yl]dodecane] yielded an IC50 in the series on P. falciparum of 12 µM. Besides, the “ED50 (mg/Kg) P. vinckei” value in the series on P. vinckei (setting [2]) was “ip < 20* mg/Kg”; with P. vinckei (setting [3]), “po ≈ 100* mg/Kg”.

In the case of `O=C(Oc1ccc(F)cc1)N1CCN=C1CCCCCCCCCCCCC1=NCCN1C(=O)Oc1ccc(F)cc1` [Compound 6.8, 1,12-bis[N,N′-(4-fluorophenylyloxycarbonyl)imidazolin-2-yl]dodecane], the IC50 in the series with P. falciparum was 69.5 µM.

On to `CC(C)(C)OC(=O)N=C(NCCCCCCCCCCCCNC(=NC(=O)OC(C)(C)C)NC(=O)OC(C)(C)C)NC(=O)OC(C)(C)C` [Compound 12.2, 1,12-bis(N,N′-di-tert-butyloxycarbonylguanidino)dodecane], for which the IC50 with P. falciparum stood at 1.9 µM.

Molecule `CC(=N)NCCCCCCCCCCCCNC(C)=N` [Compound 20.0, 1,12-bis(N,N′-acetamidinyl)dodecane] registered an IC50 in the series with P. falciparum of 0.002 µM. The “ED50 (mg/Kg) P. vinckei” value in the series with P. vinckei (setting [2]) is recorded as “ip = 2.3* mg/Kg”.

`CS(=O)(=O)OCC(=N)NCCCCCCCCCCCCNC(=N)COS(C)(=O)=O` [Compound 20.12, 1,12-bis(N,N′-methylsulfonyloxyacetamidinyl)dodecane]: the “ED50 (mg/Kg) P. vinckei” value in the series with P. vinckei (ip, 4-day suppression test) was “ip = 4.7 mg/Kg”; in the series on P. vinckei (po, 4-day suppression test), “po = 42 mg/Kg”.

`Cc1noc(=O)n1CCCCCCCCCCCCn1c(C)noc1=O` [Compound 20.14, 1,12-bis[N,N′(3-methyl-1,2,4-oxadiazol-5(4H)-one)-3-yl]dodecane] registered an IC50 in the series on P. falciparum (Plasmodium falciparum) of 7.1 µM. Besides, the ED50 in the series on P. vinckei (ip, 4-day suppression test) is 9 mg/kg; in the series on P. vinckei (po, 4-day suppression test) it was 62 mg/kg.

In the series on P. falciparum, `C(CCCCCCNC1=NCCC1)CCCCCNC1=NCCC1` [Compound 21.0, 1,12-bis[N,N′-(3,4-dihydro-2H-pyrrol-5-yl)amino]dodecane] returned an IC50 of 0.0038 µM. In addition, the “ED50 (mg/Kg) P. vinckei” value in the series with P. vinckei (setting [2]) was “ip = 2.8* mg/Kg”. In the series with P. vinckei (setting [3]), the “ED50 (mg/Kg) P. vinckei” value is recorded as “po = 85* mg/Kg”. Also, in series [1] (ip, 15 mg/kg), the C0 was determined as 0.024 µg/mL and the t1/2 result is listed as “approximately 35 hours”. In series [1] (po, 100 mg/kg), the C0 was 0.016 µg/mL and the “apparent t1/2” value stood at 36 h.

In the series with P. falciparum, `N=C1CCCN1CCCCCCCCCCCCN1CCCC1=N` [Compound 24.0, 1,12-bis[N,N′-(2-iminopyrrolidinyl)]dodecane] came in with an IC50 of 0.004 µM.
